From US5541171A, “Orally administrable pharmaceutical composition” (priority 1981, dated 1996)
“Also recorded” adds a separate entry of the source.

Assays:
[1] = Serum sulphapyridine levels after ingestion of coated capsules (HPLC)
Method: Six convalescent patients, 3 male and 3 female with a mean age of 57 years, from a general medical ward gave informed consent to a clinical trial. […] The thickness of the coat was checked using a micrometer to establish the range of thickness and to measure both the wide and narrow end of the capsule. Each capsule contained barium sulphate (300 mg) potato starch (20 mg) and sulphapyridine (300 mg) as a convenient marker Plain abdominal X-rays were taken at 5, 8 and 12 hours after ingestion and blood samples at 0, 3, 5, 7, 9, 12 and 24 hours after ingestion to assay sulphapyridine levels.
Sulphapyridine was analysed by high pressure liquid chromotography (HPLC) using a modification of the method described by Shaw et al (J. Pharm. Pharmacol. 1980;32;67). The analysis was performed on a LiChrosorb 10 RP 18 bonded silica reversed phase column (Merck). The mobile phase was acetonitrile--0.05M potassium dihydrogen phosphate solution (20:80) containing 0.1 per cent tetrabutyl ammonium hydroxide. Sulphapyridine was detected spectrometrically at 260 nm. Serum samples were treated with an equal volume of ethanol to precipitate plasma proteins and after centrifugation, the supernatant was injected on to the chromatograph. Sulphapyridine concentration was read directly from a calibration curve which was linear over the range 1-25 μg/ml (R=0.99).

[2] = cited from earlier work
[3] = in vivo
Method: Patients completed diary cards throughout 16 weeks and were asked to note any side effects; they were seen after 4, 12 and 16 weeks. On completion of the trial a further sigmoidoscopy was performed to ensure the muscosa appeared normal. Patients were seen promptly if symptoms recurred and a sigmoidoscopy was performed at that time. A relapse was defined as a recurrence of symptoms with increased stool frequency and blood loss with sigmoidoscopic changes of contact or spontaneous mucosal haemorrhage (grade 3) or the presence of pus with bleeding and ulceration (grade 4). Blood was taken for a routine blood count and examination of the film at each clinic attendance and measurements of the serum electrolytes and liver function tests were performed initially and after 16 weeks. The study, which was randomised and double-blind in design, involved using identical placebo tablets for both sulphasalazine and 5-ASA; each patient was given two sets of tablets with either active 5-ASA and placebo sulphasalazine or placebo 5-ASA and active sulphasalazine. The patient's usual dose of sulphasalazine was continued with a minimum dose of 2 grams daily. The tablets of 5-ASA contained 400 mg (ie the amount of 5-ASA contained in 1 gram of sulphasalazine). […] Compliance was checked at each hospital visit by counting the number of tablets returned. […]

[4] = system: ulcerative colitis or proctitis; experiment: Randomised double-blind 16 week maintenance trial in colitis: relapse; assay type: in vivo, patients
Method: Seventy-two patients who were in remission with ulcerative colitis or proctitis and taking at least 4 sulphasalazine tablets each day gave their informed consent to a clinical trial. Remission was defined as the passage of three or fewer stools each day without blood or slime during the previous month. Thirty-six patients were male and 36 female. Sigmoidoscopy with rectal biopsy was performed initially and patients only entered the trial if the mucosa was normal (grade 1) or oedematous (grade 2). Biopsies were coded and reviewed by a pathologist who graded them as 1 (normal) or grades 2, 3 or 4 representing mild, moderate or severe inflammatory change.
At least 3 tablets of 5-ASA were taken daily (1200 mg) with an increased dose of 1 tablet for each gram of sulphasalazine above the minimum entry dose of 2 grams for patients taking a high dose of sulphasalazine. […]

[5] = system: colitis, Crohn's disease, idiopathic proctitis and chronic arthritis; conditions: in vivo; cited from earlier work

Row | Structure (SMILES) | drug detected in serum 3 hours after ingestion ([1]; 3 hours, any patient) | time of maximal serum levels ([1]; human, in vivo) | patients with drug detected in serum 5 hours after ingestion ([1]; in vivo) [patients] | clearance / excretion ([2]; in vivo) | absorption after oral administration [2] | side effects (headache, nausea or indigestion), comparison between groups [3] | significance of difference in relapses between 5-ASA and sulphasalazine ([4]; chi squared) | usefulness in treatment [5] | serum levels ([2]; in vivo) | Relapses ([4]; 16 weeks, 34 patients on 5-ASA (coated tablets, at least 1200 mg daily), 33 on sulphasalazine (minimum 2 grams daily)) [patients]
1 | Nc1ccc(S(=O)(=O)Nc2ccccn2)cc1 [sulphapyridine] | No drug was detected | 12 or 24 hours after ingestion | 2 | slowly cleared from the serum | almost entirely absorbed from the small intestine before reaching the colon | – | – | – | – | –
2 | Nc1ccc(O)c(C(=O)O)c1 [Example 5-ASA, 5-amino-salicylic acid] | – | – | – | excreted rapidly after acetylation | – | no difference | not statistically significant; also recorded: p = NS | pharmacologically active agent in the treatment of colonic and rectal ailments | very low | –
3 | O=C(O)c1cc(/N=N/c2ccc(S(=O)(=O)Nc3ccccn3)cc2)ccc1O [sulphasalazine, Salicylazosulphapyridine] | – | – | – | – | only absorbed to a limited extent before reaching the colon | no difference | – | useful in the treatment of colitis, Crohn's disease, idiopathic proctitis and chronic arthritis | – | 6
